ChEMBL document CHEMBL3351248, “The discovery of potent, selective, and reversible inhibitors of the house dust mite peptidase allergen Der p 1: an innovative approach to the treatment of allergic asthma” (J Med Chem, 2014)
The source made the active and inactive calls. The calls are words filed in the database; no cut-off is given here.

How the values were obtained:
[1] = Metabolic stability in rat NR8383 cells after 2 hrs by LC-MS-MS analysis; type: ADME, cell-based; conditions: nr8383, 2 h
[2] = Metabolic stability in rat L2 cells after 2 hrs by LC-MS-MS analysis; type: ADME, cell-based; conditions: l2, 2 h
Rattus norvegicus = assay: Inhibition of house dust mites allergan-induced eosinophil recruitment in Brown Norway rat model at 25 to 35 ug/kg administered via intratracheal aerosolization 2 hrs prior to allergan challenge measured after 48 hrs by bronchoalveolar lavage method; type: functional, organism-based; conditions: Lung

SMILES | Stability [1] | Stability [2] | inhibition (Rattus norvegicus)
CC(C)[C@H](NC(=O)[C@H](C)NC(=O)[C@@H](NC(=O)C1CC[N+](C)(C)CC1)C(C)(C)C)C(=O)C(=O)NCc1ccccc1.O=C[O-] | Stable | Stable | –
CC(C)[C@H](NC(=O)[C@H](C)NC(=O)[C@H](Cc1ccccc1)NC(=O)c1ccccc1)C(=O)C(=O)NCC(=O)N1CCN(C)CC1 | Stable | Stable | Active
CC(C)[C@H](NC(=O)[C@H](C)NC(=O)[C@@H](NC(=O)c1ccccc1)C(C)(C)C)C(=O)C(=O)NCc1ccccc1 | Stable | Stable | –
CC(C)[C@H](NC(=O)[C@H](C)NC(=O)[C@H](Cc1ccccc1)NC(=O)c1ccccc1)C(=O)C(=O)NCC(=O)N1CC[N+](C)(C)CC1.O=C[O-] | Stable | Stable | –

Further lines, with some results ahead:

Stability [1] | Stability [2] | SMILES | inhibition (Rattus norvegicus)
Stable | Stable | CC(C)[C@H](NC(=O)[C@H](C)NC(=O)[C@H](Cc1ccccc1)NC(=O)c1cccc2ccccc12)C(=O)C(=O)NCC(=O)N1CCN(C)CC1 | Active
Stable | Stable | CC(C)[C@H](NC(=O)[C@H](C)NC(=O)[C@@H](NC(=O)c1ccncc1)C(C)(C)C)C(=O)C(=O)NC1CCCCC1 | Active
Stable | Stable | CC(C)[C@H](NC(=O)[C@H](C)NC(=O)[C@@H](NC(=O)c1ccnc2ccccc12)C(C)(C)C)C(=O)C(=O)NCc1ccccc1 | Active
Stable | Stable | CC(C)[C@H](NC(=O)[C@H](C)NC(=O)[C@H](Cc1ccccc1)NC(=O)c1ccccc1)C(=O)C(=O)NCC(=O)N1CCOCC1 | Active
